Measured values taken from patent US9988635B2, “Modulation of growth hormone receptor expression and insulin-like growth factor expression” (Antisense Therapeutics Limited, priority 2003, dated 2018).
In the oligonucleotide strings, read from the 5' end, every base follows the letter of its sugar. An asterisk marks phosphorothioate; unmarked linkages are phosphodiester. Other units and linkages are bracketed, terminal groups are in braces. A string of capitals states the bases alone. e = 2'-O-(2-methoxyethyl) (MOE); [5mC] = 5-methylcytosine; d = 2'-deoxy (DNA)

tested on: mouse growth hormone receptor mRNA; assay: Inhibition of mouse growth hormone receptor mRNA levels in b.END cells, quantitative real-time PCR, incl. dose-response; type: cell-based; details: averages from three experiments
Method: (§1) The mouse brain endothelial cell line b.END was obtained from Dr. Werner Risau at the Max Plank Instititute (Bad Nauheim, Germany). b.END cells were routinely cultured in DMEM, high glucose (Gibco/Life Technologies, Gaithersburg, Md.) supplemented with 10% fetal calf serum (Gibco/Life Technologies, Gaithersburg, Md.). Cells were routinely passaged by trypsinization and dilution when they reached 90% confluence. Cells were seeded into 96-well plates (Falcon-Primaria #3872) at a density of 3000 cells/well for use in RT-PCR analysis.
(§2) When cells reached 65-75% confluency, they were treated with oligonucleotide. For cells grown in 96-well plates, wells were washed once with 100 μL OPTI-MEM™-1 reduced-serum medium (Invitrogen Corporation, Carlsbad, Calif.) and then treated with 130 μL of OPTI-MEM™-1 containing 3.75 μg/mL LIPOFECTIN™ (Invitrogen Corporation, Carlsbad, Calif.) and the desired concentration of oligonucleotide. Cells are treated and data are obtained in triplicate. After 4-7 hours of treatment at 37° C., the medium was replaced with fresh medium. Cells were harvested 16-24 hours after oligonucleotide treatment.
(§3) Total RNA was isolated using an RNEASY 96™ kit and buffers purchased from Qiagen Inc. (Valencia, Calif.) following the manufacturer's recommended procedures. Briefly, for cells grown on 96-well plates, growth medium was removed from the cells and each well was washed with 200 μL cold PBS. 150 μL Buffer RLT was added to each well and the plate vigorously agitated for 20 seconds. 150 μL of 70% ethanol was then added to each well and the contents mixed by pipetting three times up and down. The samples were then transferred to the RNEASY 96™ well plate attached to a QIAVAC™ manifold fitted with a waste collection tray and attached to a vacuum source. Vacuum was applied for 1 minute. 500 μL of Buffer RW1 was added to each well of the RNEASY 96™ plate and incubated for 15 minutes and the vacuum was again applied for 1 minute. An additional 500 μL of Buffer RW1 was added to each well of the RNEASY 96™ plate and the vacuum was applied for 2 minutes. 1 mL of Buffer RPE was then added to each well of the RNEASY 96™ plate and the vacuum applied for a period of 90 seconds. The Buffer RPE wash was then repeated and the vacuum was applied for an additional 3 minutes. The plate was then removed from the QIAVAC™ manifold and blotted dry on paper towels. The plate was then re-attached to the QIAVAC™ manifold fitted with a collection tube rack containing 1.2 mL collection tubes. RNA was then eluted by pipetting 140 μL of RNAse free water into each well, incubating 1 minute, and then applying the vacuum for 3 minutes.
(§4) Quantitation of growth hormone receptor mRNA levels was accomplished by real-time quantitative PCR using the ABI PRISM™ 7600, 7700, or 7900 Sequence Detection System (PE-Applied Biosystems, Foster City, Calif.) according to manufacturer's instructions. This is a closed-tube, non-gel-based, fluorescence detection system which allows high-throughput quantitation of polymerase chain reaction (PCR) products in real-time. As opposed to standard PCR in which amplification products are quantitated after the PCR is completed, products in real-time quantitative PCR are quantitated as they accumulate. This is accomplished by including in the PCR reaction an oligonucleotide probe that anneals specifically between the forward and reverse PCR primers, and contains two fluorescent dyes. A reporter dye (e.g., FAM or JOE, obtained from either PE-Applied Biosystems, Foster City, Calif., Operon Technologies Inc., Alameda, Calif. or Integrated DNA Technologies Inc., Coralville, Iowa) is attached to the 5′ end of the probe and a quencher dye (e.g., TAMRA, obtained from either PE-Applied Biosystems, Foster City, Calif., Operon Technologies Inc., Alameda, Calif. or Integrated DNA Technologies Inc., Coralville, Iowa) is attached to the 3′ end of the probe. […]

| Substance | % INHIB of mouse growth hormone receptor mRNA levels |
| --- | --- |
| 227443 (antisense eT*eG*e[5mC]*eT*eT*dG*dG*d[5mC]*dA*dG*d[5mC]*dT*d[5mC]*dG*dT*eG*eG*eG*eT*eT) [compound 227443] | 0% |
| 227444 (antisense eA*eT*eG*eG*e[5mC]*dT*dG*d[5mC]*dG*d[5mC]*d[5mC]*dT*dG*d[5mC]*dT*eT*eG*eG*e[5mC]*eA) [compound 227444] | 53% |
| 227445 (antisense eT*eA*e[5mC]*e[5mC]*eT*dG*dA*dG*dA*d[5mC]*d[5mC]*dT*d[5mC]*dG*dG*eA*eG*eT*eT*eT) [compound 227445] | 69% |
| 227446 (antisense eA*e[5mC]*eA*eA*eA*dG*dA*dT*d[5mC]*d[5mC]*dA*dT*dA*d[5mC]*d[5mC]*eT*eG*eA*eG*eA) [compound 227446] | 87% |
| 227447 (antisense eG*e[5mC]*eT*eG*eG*dT*dG*dT*dA*dG*d[5mC]*d[5mC]*dT*d[5mC]*dA*e[5mC]*eT*eT*e[5mC]*e[5mC]) [compound 227447] | 77% |
| 227448 (antisense eT*eT*eT*eG*e[5mC]*d[5mC]*dA*dA*dG*dA*dG*dT*dA*dG*d[5mC]*eT*eG*eG*eT*eG) [compound 227448] | 60% |
| 227449 (antisense eA*e[5mC]*eG*eA*e[5mC]*dA*d[5mC]*dT*dT*dG*dG*dT*dG*dA*dA*eT*e[5mC]*eG*eA*eG) [compound 227449] | 69% |
| 227450 (antisense eT*eG*eG*e[5mC]*eT*dT*dT*d[5mC]*d[5mC]*d[5mC]*dT*dT*dT*dT*dA*eG*e[5mC]*eA*eT*eA) [compound 227450] | 71% |
| 227451 (antisense eA*eT*eG*eA*eG*d[5mC]*dA*dA*dT*dT*d[5mC]*dT*dT*dG*d[5mC]*eA*eG*e[5mC]*eT*eT) [compound 227451] | 49% |
| 227454 (antisense eA*eG*eT*eT*eG*dA*dA*dG*dT*dA*dA*d[5mC]*dA*dG*d[5mC]*eT*eG*eT*eT*eT) [compound 227454] | 69% |
| 227455 (antisense eA*eG*eT*eA*eG*dG*dG*dT*dA*dT*d[5mC]*d[5mC]*dA*dA*dA*eT*eG*eG*eA*eG) [compound 227455] | 43% |
| 227456 (antisense eG*eT*e[5mC]*e[5mC]*eA*dG*dT*dT*dG*dA*dG*dG*d[5mC]*d[5mC]*dA*eA*eT*eG*eG*eG) [compound 227456] | 97% |
| 227457 (antisense eG*eA*eA*eT*eT*dA*dT*d[5mC]*d[5mC]*dA*dT*d[5mC]*d[5mC]*d[5mC]*dT*eT*e[5mC]*eA*eG*eA) [compound 227457] | 67% |

tested on: human growth hormone receptor mRNA; assay: Inhibition of human growth hormone receptor mRNA levels in MCF7 cells, quantitative real-time PCR; type: cell-based; set-up: concentration or dose not given beside the values; details: averages from three experiments
Method: as §1, with “human breast carcinoma” for “mouse brain endothelial”, “MCF-7” for “b.END”, “from” for “from Dr. Werner Risau at”, “American Type Culture Collection (Manassas, Va.). MCF-7” for “Max Plank Instititute (Bad Nauheim, Germany). b.END”, “DMEM low” for “DMEM, high”, “7000” for “3000”
as §2, §3
as §4, with “probe. When the probe and dyes are intact, reporter dye emission is quenched by the proximity of the 3′ quencher dye.” for “probe.”

| Substance | % INHIB of human growth hormone receptor mRNA levels |
| --- | --- |
| 272356 (antisense eA*eT*eG*eG*eA*dG*dG*d[5mC]*dT*dG*dG*dA*dG*dG*dT*eT*e[5mC]*eA*eA*eA) [compound 272356] | 63% |
| 272357 (antisense eT*eA*eG*eG*eG*dT*d[5mC]*d[5mC]*dA*dT*d[5mC]*dT*dT*dT*d[5mC]*eA*eA*eG*eA*e[5mC]) [compound 272357] | 62% |
| 272358 (antisense eT*e[5mC]*eT*e[5mC]*e[5mC]*dA*dG*dA*dT*dA*dG*dA*dA*dT*d[5mC]*eT*eA*eA*eA*e[5mC]) [compound 272358] | 53% |
| 272359 (antisense eT*e[5mC]*e[5mC]*eA*eA*dA*dT*dA*dT*dT*d[5mC]*dT*dG*dG*dT*eA*e[5mC]*eT*eT*eT) [compound 272359] | 72% |
| 272360 (antisense eT*eA*eT*eT*eA*dG*dT*dT*dA*d[5mC]*d[5mC]*dT*dT*dG*dA*eG*eG*eA*eG*eA) [compound 272360] | 0% |
| 272361 (antisense eA*eT*eT*eT*eT*d[5mC]*d[5mC]*dT*dT*d[5mC]*d[5mC]*dT*dA*dG*dA*eA*eA*eA*eT*eA) [compound 272361] | 10% |
